Drawing on PubChem BioAssay (NCI), this text covers GI50 and TGI for eight molecules.

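Exposure lasted 48 hours, with cells grown in 96-well plates and compounds tested at five concentrations. At the GI50, growth is halved. TGI is the concentration that stops growth completely.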

Among the test systems are PC-3 prostate; SF-268 CNS; TK-10 renal; HCT-116 colon; SF-295 CNS; MDA-MB-231 breast; HOP-92 NSCLC; OVCAR-3 ovarian; HOP-62 NSCLC; IGROV1 ovarian.
What all share (test): NCI-60 cell line screen, 48 h

Turning to `CN(O)c1nc(N(C)O)nc(N2CCOCC2)n1`, the GI50 with PC-3 prostate was 7.82 µM; in the assay with SF-268 CNS, 5.7 µM; with TK-10 renal, 5.89 µM; with HCT-116 colon, 1.07 µM; with SF-295 CNS it was 2.57 µM; in the assay on MDA-MB-231 breast it was 7 µM. In addition, the GI50 in the assay with HOP-92 NSCLC was 8.77 µM; in the assay on OVCAR-3 ovarian, 10.2 µM; in the assay on HOP-62 NSCLC, 2.27 µM; in the assay with IGROV1 ovarian, 2.27 µM. Also, the TGI in the assay with PC-3 prostate, with SF-268 CNS, in the assay on TK-10 renal, in the assay with HCT-116 colon, in the assay on SF-295 CNS and in the assay on MDA-MB-231 breast was above 100 µM in each case. Moreover, the TGI in the assay on HOP-92 NSCLC, in the assay with OVCAR-3 ovarian, in the assay on HOP-62 NSCLC and in the assay on IGROV1 ovarian was above 100 µM each time.
Regarding `O=C(O)C(/C=C/c1ccccc1)c1ccccc1` (stereo not given), the TGI with PC-3 prostate, with SF-268 CNS, in the assay with TK-10 renal, in the assay with HCT-116 colon, in the assay on SF-295 CNS and in the assay with MDA-MB-231 breast was above 100 µM throughout. In addition, the TGI with HOP-92 NSCLC, in the assay with OVCAR-3 ovarian, with HOP-62 NSCLC and in the assay with IGROV1 ovarian was above 100 µM throughout.
For the molecule `COc1cc(NC(C)CCCNC2CN3CCC2CC3)c2ncccc2c1` (stereo not given), the GI50 with PC-3 prostate was 12.5 µM; in the assay with SF-268 CNS, 12.2 µM; with TK-10 renal, 16.6 µM; in the assay with HCT-116 colon, 3.75 µM; with SF-295 CNS it was 11.6 µM; with MDA-MB-231 breast it was 3.58 µM. The GI50 with HOP-92 NSCLC is 4.37 µM; in the assay on OVCAR-3 ovarian, 3.22 µM; in the assay on HOP-62 NSCLC it was 11.9 µM; in the assay on IGROV1 ovarian it was 11.5 µM. Moreover, the TGI in the assay with PC-3 prostate amounted to 35.1 µM; in the assay with SF-268 CNS, 25.8 µM; in the assay with TK-10 renal, 31 µM; with HCT-116 colon it was 13.9 µM; with SF-295 CNS it was 27.7 µM; with MDA-MB-231 breast it was 15.7 µM. In addition, the TGI in the assay with HOP-92 NSCLC stood at 21.8 µM; in the assay with OVCAR-3 ovarian, 11.4 µM; with HOP-62 NSCLC, 24.8 µM; with IGROV1 ovarian, 31.2 µM.
In the case of `Cc1cc2c(cc1C)N(C(=O)CCl)CC(=O)N2`, the GI50 with PC-3 prostate is 4.48 µM; in the assay with SF-268 CNS, 3.47 µM; in the assay on TK-10 renal it was 2.11 µM; with HCT-116 colon, 2.53 µM; in the assay with SF-295 CNS, 13.6 µM; in the assay with MDA-MB-231 breast, 4.19 µM. Further, the GI50 with HOP-92 NSCLC is 1.59 µM; in the assay on OVCAR-3 ovarian, 1.89 µM; in the assay on HOP-62 NSCLC, 3.3 µM; in the assay with IGROV1 ovarian, 2.22 µM. The TGI in the assay with PC-3 prostate turned out to be 18.9 µM; with SF-268 CNS, 11.6 µM; with TK-10 renal, 3.59 µM; in the assay on HCT-116 colon, 9.77 µM; in the assay on SF-295 CNS, 29.6 µM; in the assay with MDA-MB-231 breast, 15.9 µM. For the same molecule, the TGI with HOP-92 NSCLC was 3.93 µM; in the assay with OVCAR-3 ovarian, 3.33 µM; in the assay on HOP-62 NSCLC, 12 µM; in the assay on IGROV1 ovarian, 4.45 µM.
Consider `COc1c(C)c2c(c(O)c1C/C=C(\C)CCC(=O)O)C(=O)OC2`, for which the GI50 in the assay on PC-3 prostate was 0.61 µM; in the assay with SF-268 CNS, 0.578 µM; with TK-10 renal it was 1.68 µM; with HCT-116 colon, 0.145 µM; with SF-295 CNS it was 0.278 µM; with MDA-MB-231 breast, 0.956 µM. The GI50 with HOP-92 NSCLC was 0.959 µM; in the assay with OVCAR-3 ovarian, 0.286 µM; with HOP-62 NSCLC it was 0.512 µM; with IGROV1 ovarian it was 0.253 µM. Also, the TGI in the assay on PC-3 prostate, in the assay with SF-268 CNS, in the assay with TK-10 renal, in the assay on HCT-116 colon, in the assay on SF-295 CNS and with MDA-MB-231 breast was above 100 µM each time. Also, the TGI in the assay on HOP-92 NSCLC, with OVCAR-3 ovarian, in the assay on HOP-62 NSCLC and with IGROV1 ovarian was above 100 µM throughout.
Consider `C=C1CCC2C3(C)COC(c4ccc(N(C)C)cc4)OC3CCC2(C)C1C/C=C1/C(=O)OCC1O` (stereo not given), for which the GI50 in the assay on PC-3 prostate was 2.32 µM; with SF-268 CNS, 3.78 µM; in the assay with TK-10 renal it was 8 µM; with HCT-116 colon, 1.62 µM; with SF-295 CNS, 6 µM; in the assay with MDA-MB-231 breast, 7.19 µM. Also, the GI50 in the assay with HOP-92 NSCLC was 6.4 µM; in the assay on OVCAR-3 ovarian, 1.96 µM; in the assay with HOP-62 NSCLC, 18.4 µM; in the assay on IGROV1 ovarian, 2.44 µM. Moreover, the TGI stood at 9.83 µM in the assay with PC-3 prostate; 14.4 µM in the assay with SF-268 CNS; 21 µM with TK-10 renal; 3.05 µM with HCT-116 colon; 20 µM in the assay with SF-295 CNS; 20.8 µM in the assay with MDA-MB-231 breast. The TGI with HOP-92 NSCLC is 21.7 µM; in the assay with OVCAR-3 ovarian it was 3.98 µM; with HOP-62 NSCLC, 33.3 µM; in the assay on IGROV1 ovarian it was 6.02 µM.
For the molecule `COC(=O)C1(C)CCC(c2ccc(C)cc2)=C(CC(=O)O)C1` (stereo not given), the TGI with PC-3 prostate, in the assay on SF-268 CNS, with TK-10 renal, in the assay on HCT-116 colon, in the assay on SF-295 CNS and with MDA-MB-231 breast was above 100 µM throughout. Besides, the TGI in the assay on HOP-92 NSCLC, with OVCAR-3 ovarian, in the assay with HOP-62 NSCLC and in the assay with IGROV1 ovarian was above 100 µM throughout.
Consider `COc1ccc2c(c1)c(=O)oc1cc(OC/C(C)=N\O)ccc12`, for which the GI50 is above 100 µM in the assay with PC-3 prostate; 37.7 µM in the assay with SF-268 CNS; 44.8 µM with TK-10 renal; above 100 µM in the assay on HCT-116 colon; 37.9 µM in the assay on SF-295 CNS; 42.9 µM with MDA-MB-231 breast. Besides, the GI50 in the assay with HOP-92 NSCLC was 69.5 µM; with OVCAR-3 ovarian, above 100 µM; in the assay on HOP-62 NSCLC, 28.7 µM; in the assay with IGROV1 ovarian, above 100 µM. In addition, the TGI with PC-3 prostate, with SF-268 CNS, in the assay with TK-10 renal, in the assay with HCT-116 colon, in the assay on SF-295 CNS and in the assay on MDA-MB-231 breast was above 100 µM in each case. Further, the TGI in the assay on HOP-92 NSCLC, in the assay on OVCAR-3 ovarian, in the assay with HOP-62 NSCLC and with IGROV1 ovarian was above 100 µM in each case.
